In US12077503B2, “Substituted cyclic amides and their use as herbicides” (FMC CORPORATION, priority 2015, dated 2024):

Experiments:
Format in all cases: in vivo
[1] = system: pigweed (Amaranthus retroflexus); assay: Test A preemergence; settings: Amaranthus retroflexus, pre-emergence, 240 h
[2] = system: ragweed (common ragweed, Ambrosia elatior); assay: Test A preemergence; settings: Ambrosia artemisiifolia, pre-emergence, 240 h
Outline: (§1)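 Seeded soil received test chemicals as a preemergence directed spray, and seedlings at one to two leaves, 2–10 cm tall, received them postemergence, in a non-phytotoxic, surfactant-containing solvent mixture. Pots were held in a greenhouse for approximately 10 d, then rated for injury from 0, no effect, to 100, complete control.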

[3] = system: ryegrass, Italian (Italian ryegrass, Lolium multiflorum); assay: Test A preemergence; settings: Lolium multiflorum, pre-emergence, 240 h
Outline: as §1

[4] = system: barnyardgrass (Echinochloa crus-galli); assay: Test A preemergence; settings: Echinochloa crus-galli, pre-emergence, 240 h
Outline: as §1

[5] = system: giant foxtail (Setaria faberii); assay: Test A preemergence; settings: Setaria faberi, pre-emergence, 240 h
Outline: as §1

Kochia (Kochia scoparia) [6] = assay: Test A preemergence; settings: Bassia scoparia, pre-emergence, 240 h
Outline: as §1

[7] = system: sedge, umbrella (small-flower umbrella sedge, Cyperus difformis); assay: Test B flooded paddy test; settings: Cyperus difformis, 250 g ai/ha, Flood; 0 to 100 scale where 0 is no effect and 100 is complete control; read-out: Sedge, Umbrella plant response rating
Outline: (§2)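 Plants at 2-leaf stage flooded to 3 cm above soil, with compounds applied directly to paddy water and that depth maintained. Plants kept in greenhouse 13–15 d. Visual rating versus controls on a 0 (no effect) to 100 (complete control) scale.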

[8] = system: ducksalad (Heteranthera limosa); assay: Test B flooded paddy test; settings: Heteranthera limosa, 250 g ai/ha, Flood; 0 to 100 scale where 0 is no effect and 100 is complete control; read-out: Ducksalad plant response rating
Outline: as §2

rice (Oryra sativa) = assay: Test B flooded paddy test; settings: Oryza sativa, 250 g ai/ha, Flood; 0 to 100 scale where 0 is no effect and 100 is complete control; read-out: Rice plant response rating
Outline: as §2

[9] = system: barnyardgrass (Echinochloa crus-galli); assay: Test B flooded paddy test; settings: Echinochloa crus-galli, 250 g ai/ha, Flood; 0 to 100 scale where 0 is no effect and 100 is complete control; read-out: Barnyardgrass plant response rating
Outline: as §2

[10] = system: pigweed (Amaranthus retroflexus); assay: Test A postemergence; settings: Amaranthus retroflexus, post-emergence, 240 h, read-out: Plant response rating, Pigweed
Outline: as §1

[11] = system: ragweed (common ragweed, Ambrosia elatior); assay: Test A postemergence; settings: Ambrosia artemisiifolia, post-emergence, 240 h, read-out: Plant response rating, Ragweed
Outline: as §1

corn (Zea mays) = assay: Test A postemergence; settings: Zea mays, post-emergence, 240 h
Outline: as §1

[12] = system: Galium (catchweed bedstraw, Galium aparine); assay: Test A postemergence; settings: Galium, post-emergence, 240 h, read-out: Plant response rating, Galium
Outline: as §1

[13] = system: ryegrass, Italian (Italian ryegrass, Lolium multiflorum); assay: Test A postemergence; settings: Lolium multiflorum, post-emergence, 240 h, read-out: Plant response rating, Ryegrass, Italian
Outline: as §1

[14] = system: blackgrass (Alopecurus myosuroides); assay: Test A postemergence; settings: Alopecurus myosuroides, post-emergence, 240 h, read-out: Plant response rating, Blackgrass
Outline: as §1

[15] = system: barnyardgrass (Echinochloa crus-galli); assay: Test A postemergence; settings: Echinochloa crus-galli, post-emergence, 240 h, read-out: Plant response rating, Barnyardgrass
Outline: as §1

[16] = system: giant foxtail (Setaria faberii); assay: Test A postemergence; settings: Setaria faberi, post-emergence, 240 h, read-out: Plant response rating, Foxtail, Giant
Outline: as §1

Kochia (Kochia scoparia) [17] = assay: Test A postemergence; settings: Bassia scoparia, post-emergence, 240 h, read-out: Plant response rating, Kochia
Outline: as §1

[18] = system: wheat (Triticum aestivum); assay: Test A postemergence; settings: Triticum aestivum, post-emergence, 240 h, read-out: Plant response rating, Wheat
Outline: as §1

[19] = 125 g ai/ha, Postemergence, visual injury after approximately 10 d, 0 to 100 scale where 0 is no effect and 100 is complete control
[20] = 500 g ai/ha, postemergence, visual injury, 0 to 100 scale (0 no effect, 100 complete control), approx. 10 d

CSc1ccccc1NC(=O)[C@H]1C(=O)N(C)C[C@@H]1c1cc(C)c(Br)c(C)c1 [Compound 1025]
pest or weed control at 125 g/ha ([1]; 125 g ai/ha, Preemergence, visual injury rating after approximately 10 d, read-out: Pigweed plant response rating (0 to 100 scale, 0 is no effect, 100 is complete control)): 0% | pest or weed control at 500 g/ha ([1]; 500 g ai/ha, preemergence, visual injury rating about 10 d after treatment, 0 to 100 scale (0 no effect, 100 complete control), read-out: Pigweed plant response rating): 50% | pest or weed control at 125 g/ha ([2]; 125 g ai/ha, Preemergence, visual injury rating after approximately 10 d, read-out: Ragweed plant response rating (0 to 100 scale, 0 is no effect, 100 is complete control)): 0% | pest or weed control at 500 g/ha ([2]; 500 g ai/ha, preemergence, visual injury rating about 10 d after treatment, 0 to 100 scale (0 no effect, 100 complete control), read-out: Ragweed plant response rating): 0% | pest or weed control at 125 g/ha ([3]; 125 g ai/ha, Preemergence, visual injury rating after approximately 10 d, read-out: Ryegrass, Italian plant response rating (0 to 100 scale, 0 is no effect, 100 is complete control)): 0% | pest or weed control at 500 g/ha ([3]; 500 g ai/ha, preemergence, visual injury rating about 10 d after treatment, 0 to 100 scale (0 no effect, 100 complete control), read-out: Ryegrass, Italian plant response rating): 30% | pest or weed control at 125 g/ha ([4]; 125 g ai/ha, Preemergence, visual injury rating after approximately 10 d, read-out: Barnyardgrass plant response rating (0 to 100 scale, 0 is no effect, 100 is complete control)): 70% | pest or weed control at 500 g/ha ([4]; 500 g ai/ha, preemergence, visual injury rating about 10 d after treatment, 0 to 100 scale (0 no effect, 100 complete control), read-out: Barnyardgrass plant response rating): 70% | pest or weed control at 125 g/ha ([5]; 125 g ai/ha, Preemergence, visual injury rating after approximately 10 d, read-out: Foxtail, Giant plant response rating (0 to 100 scale, 0 is no effect, 100 is complete control)): 90% | pest or weed control at 500 g/ha ([5]; 500 g ai/ha, preemergence, visual injury rating about 10 d after treatment, 0 to 100 scale (0 no effect, 100 complete control), read-out: Foxtail, Giant plant response rating): 90% | pest or weed control at 125 g/ha (Kochia (Kochia scoparia) [6]; 125 g ai/ha, Preemergence, visual injury rating after approximately 10 d, read-out: Kochia plant response rating (0 to 100 scale, 0 is no effect, 100 is complete control)): 0% | pest or weed control at 500 g/ha (Kochia (Kochia scoparia) [6]; 500 g ai/ha, preemergence, visual injury rating about 10 d after treatment, 0 to 100 scale (0 no effect, 100 complete control), read-out: Kochia plant response rating): 20% | pest or weed control at 250 g/ha [7]: 0% | pest or weed control at 250 g/ha [8]: 0% | pest or weed control at 250 g/ha (rice (Oryra sativa)): 0% | pest or weed control at 250 g/ha [9]: 0% | pest or weed control at 125 g/ha [10, 19]: 0% | pest or weed control at 500 g/ha [10, 20]: 30% | pest or weed control at 125 g/ha [11, 19]: 0% | pest or weed control at 500 g/ha [11, 20]: 0% | Corn plant response rating (crop injury, 0 = no effect, 100 = complete kill) at 125 g/ha (corn (Zea mays); [19]): 0% | Corn plant response rating (crop injury, 0 = no effect, 100 = complete kill) at 500 g/ha (corn (Zea mays); [20]): 20% | pest or weed control at 125 g/ha [12, 19]: 30% | pest or weed control at 500 g/ha [12, 20]: 30% | pest or weed control at 125 g/ha [13, 19]: 0% | pest or weed control at 500 g/ha [13, 20]: 30% | pest or weed control at 125 g/ha [14, 19]: 0% | pest or weed control at 500 g/ha [14, 20]: 0% | pest or weed control at 125 g/ha [15, 19]: 60% | pest or weed control at 500 g/ha [15, 20]: 70% | pest or weed control at 125 g/ha [16, 19]: 60% | pest or weed control at 500 g/ha [16, 20]: 60% | pest or weed control at 125 g/ha (Kochia (Kochia scoparia) [17]; [19]): 30% | pest or weed control at 500 g/ha (Kochia (Kochia scoparia) [17]; [20]): 50% | plant injury at 125 g/ha [18, 19]: 0% | plant injury at 500 g/ha [18, 20]: 0%
